Two compounds from PMC4280898, “Diazido Mixed-Amine Platinum(IV) Anticancer Complexes Activatable by Visible-Light Form Novel DNA Adducts” (Chemistry (Weinheim an Der Bergstrasse, Germany), 2013) can be followed below.

Several values for one entry are separate records, joined by “and”; a condition that tells them apart may be missing. Equal values may be shown once.

One test deals with A2780 cells. Nature of the test: SRB proliferation assay for non-light-sensitive complexes, A2780. To be noted: ambient light, 24 h exposure, 72 h recovery. In kind it is cell-based, human. On the procedure: Cytotoxicity of platinum(II) precursors: To investigate the relationship between the Pt^IV diazidodihydroxido complexes and their Pt^II dichlorido analogues trans-[PtCl2(Am1)(Am2)] (where Am=amine), the cytotoxicities of complexes trans-[PtCl2(MA)(Py)] (5) and trans-[PtCl2(MA)(Tz)] (6) towards A2780 and its cisplatin resistant sub-line A2780cis were determined. The toxicity was not photoinduced, as the complexes are not photoactive. Complexes 5 and 6 are highly cytotoxic towards A2780 and A2780cis cells compared to the reported trans-Pt^II compounds.[18]–[22] Complex 5 is about three-times more cytotoxic than complex 6 towards A2780 cells. […]
Cell Culture and Proliferation Assay for Non-light-sensitive Complexes
The A2780 ovarian cell line was obtained from the ECACC (European Collection of Animal Cell Culture, Salisbury, United Kingdom). The cells were maintained in RPMI 1640 media, which was supplemented with 10% foetal calf serum, 1% L-glutamine, and 1% penicillin/streptomycin. All cells were grown at 310 K in an humidified atmosphere containing 5% CO2. Stock solutions of the Pt complexes were freshly prepared in DMSO to assist dissolution and then diluted into saline and medium (maximum final concentration of DMSO 1% and saline 6%). After plating 5000 A2780 cells per well on day 1, Pt complexes were added to the cancer cells on day 3 at concentrations ranging from 0.01 to 100 µM, depending on the preliminary activity data obtained in screening assays. Cells were exposed to the complexes for 24 h, washed with PBS, supplied with fresh medium, and allowed to grow for three doubling times (72 h), and then the protein content (proportional to cell survival) was measured using the sulforhodamine B (SRB) assay.[7] The standard errors are based on two independent experiments of three replicates each.[8]

Another test deals with pSP73KB plasmid DNA. Nature of the test: DNA interstrand cross-linking, denaturing agarose gel. In kind it is biochemical. To be noted: in the dark. The procedure:
Interstrand cross-links: In this experiment, interstrand cross-linking efficiency of photoactivated 1 or 2, and of 5 or 6 in the dark was investigated using pSP73KB plasmid DNA. The DNA samples were treated with complexes 5 or 6 in the dark or with 1 or 2 under irradiation conditions and then were analysed by agarose gel electrophoresis under denaturing conditions. The interstrand cross-linked DNA appears in the autoradiogram as the top bands (Figure 11), which migrate more slowly than the single-strand DNA (the bottom bands). The frequencies of interstrand cross-links formed by photoactivated 1 or 2, and 5 and 6 (in the dark) were 23(±5), 19(±3), 9(±3) and 16(±2) %, respectively.
Figure 11 Agarose gel electrophoresis for quantification of DNA interstrand cross-linking. The interstrand cross-links (ICLs) by: A) 1 or 2 under irradiation conditions (420 nm light), and B) 5 or 6 in the dark were formed in linear pSP73KB plasmid DNA. A) Lane 1: control, non-modified DNA; lane 2: control, non-modified DNA, but irradiated; lanes 3–7: DNA modified by photoactivated 1 at rb=3.35×10^−5, 6.70×10^−5, 3.35×10^−4, 6.70×10^−4, 3.35×10^−3, respectively; lanes 8–12: DNA modified by photoactivated 2 at rb=3.70×10^−5, 7.40×10^−5, 3.70×10^−4, 7.40×10^−4, 3.70×10^−3, respectively. […]

The test system of the next test is pUC19 plasmid DNA. Nature of the test: Unwinding of negatively supercoiled DNA, native agarose gel. To be noted: in the dark. In kind it is biochemical. On the procedure: Unwinding of negatively supercoiled DNA: The unwinding induced in negatively supercoiled pUC19 plasmid DNA by treatment with photoactivated 1 or 2 or with 5 or 6 in the dark was measured. The degree of supercoiling was monitored using electrophoresis in native agarose gels[25] (Figure 12). The DNA unwinding angles for 1, 2, 5, and 6 were 22(±3)°, 20(±3)°, 19(±5)° and 23(±2)°, respectively.
Figure 12 Unwinding of negatively supercoiled […] plasmid DNA by: A) 1, and B) 2 under irradiation conditions (420 nm light); or C) 5, and D) 6 in the dark. The top bands in each panel correspond to the form of nicked plasmid and the bottom bands to the closed, negatively supercoiled plasmid. A) Lane 1: control, non-modified DNA; lane 2: irradiated control DNA; […]: DNA modified by photoactivated 1 at rb=0.016, 0.024, 0.032, 0.041 and 0.049, respectively. B) Lanes 1 and 10: control, non-modified DNA; lane 2: irradiated control DNA; lanes 3–9: DNA modified by photoactivated 2 at rb=0.008, 0.011, 0.020, 0.026, 0.035, 0.042 and 0.050, respectively. C) Lanes 1 and 12: control, non-modified DNA; lanes 2–11: DNA modified by 5 in the dark at rb=0.018, 0.027, 0.036, 0.045, 0.054, 0.063, 0.072, 0.081, 0.090 and 0.1, respectively. […]

Another test deals with T1, HMGB1 protein (Homo sapiens, UniProt P09429).
T1 sequence (P09429 1-215): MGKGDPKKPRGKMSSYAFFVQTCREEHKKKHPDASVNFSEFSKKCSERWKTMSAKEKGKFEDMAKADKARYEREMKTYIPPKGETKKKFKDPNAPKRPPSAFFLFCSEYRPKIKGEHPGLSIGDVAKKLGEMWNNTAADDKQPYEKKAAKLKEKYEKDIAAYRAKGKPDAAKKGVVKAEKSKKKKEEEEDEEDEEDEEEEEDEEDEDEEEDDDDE
Nature of the test: HMGB1 recognition of platinated 50 bp duplex, gel mobility shift assay. It counts as binding. To be noted: 50 bp duplex modified in the dark. From the text: HMGB1 protein recognition: The interactions of high mobility group protein B1 (HMGB1) with a 50 bp duplex DNA adducts formed by 1 or 2 under irradiation conditions and 5 or 6 in the dark were investigated using a gel mobility shift assay.
Figure 13 Recognition by HMGB1 protein of platinated DNA. Affinity of full-length HMGB1 to non-modified (control) DNA (lanes 1 and 2) or DNA modified by cisplatin (7) in the dark (lanes 3 and 4), 5 in the dark (lanes 5 and 6), 6 in the dark (lanes 7 and 8), photoactivated 1 (420 nm light, lanes 9 and 10) or photoactivated 2 (420 nm light, lanes 11 and 12). Lanes 1, 3, 5, 7, 9, 11, no protein added; lanes 2, 4, 6, 8, 10, 12, 700 ng HMGB1 added.

As usually defined, the IC50 is the concentration needed to halve the response being measured. Low readings indicate inhibition by little substance, high ones a need for much substance.

The compound `C[NH2+][Pt@SP3-2]([Cl])([Cl])[n+]1ccccc1` [Complex 5, trans-[PtCl2(MA)(Py)]] had an IC50 in the test with A2780 cells of 2.4 ± 0.7 µM. The Interstrand cross-link in the test on pSP73KB plasmid DNA was 9(±3) % and 9±3%. For the same compound, in the test on pUC19 plasmid DNA, the Unwinding angle is 19(±5) ° and 19±5 °. For the same compound, the HMGB1 protein recognition entry at HMGB1 protein was “no detectable binding and no”.
Turning to `C[NH2+][Pt@SP3-2]([Cl])([Cl])[n+]1ccsc1` [Complex 6, trans-[PtCl2(MA)(Tz)]], the IC50 with A2780 cells was found to be 6.9 ± 2.3 µM. In addition, the Interstrand cross-link with pSP73KB plasmid DNA is 16(±2) % and 16±2%. Further, the Unwinding angle in the test on pUC19 plasmid DNA was 23(±2) ° and 23±2 °. For the same compound, the HMGB1 protein recognition entry on HMGB1 protein was “no detectable binding and no”.
